Results published in ChEMBL document CHEMBL1201862, “PubChem BioAssay data set” (2004).
Values joined by “and” are separate entries in the source; they are usually repeats but may differ in a detail not shown here. Identical values can stand only once.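 Values below derive from 48-hour exposures of cells grown in 96-well plates, with endpoints linearly interpolated between the two concentrations bracketing the appropriate inhibition level. GI50 marks 50% less growth.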 Active and inactive are the calls of the source. No stated cut-off is given here; in the data, active = GI50 up to about 1.1 µM and inactive = higher.

Columns and labels:
Assay in all cases: growth of human tumour cells (NCI), 48 h
HOP-62 = system: HOP-62
ACHN = system: ACHN
HCT-15 = system: HCT-15
SR = system: SR
NCI-H460 = system: NCI-H460
SF-268 = system: SF-268
SNB-75 = system: SNB-75
IGROV-1 = system: IGROV-1
Hs-578T = system: Hs-578T
MDA-N = system: MDA-N
PC-3 = system: PC-3
SF-295 = system: SF-295
LOX IMVI = system: LOX IMVI
MDA-MB-231 = system: MDA-MB-231
M14 = system: M14
NCI/ADR-RES = system: NCI/ADR-RES
DU-145 = system: DU-145
SK-MEL-5 = system: SK-MEL-5
EKVX = system: EKVX
SK-MEL-2 = system: SK-MEL-2
A549 = system: A549
NCI-H522 = system: NCI-H522
786-0 = system: 786-0
T47D = system: T47D
OVCAR-3 = system: OVCAR-3
SK-OV-3 = system: SK-OV-3
MOLT-4 = system: MOLT-4
HOP-92 = system: HOP-92
COLO 205 = system: COLO 205
UACC-62 = system: UACC-62
OVCAR-8 = system: OVCAR-8
UACC-257 = system: UACC-257
HCT-116 = system: HCT-116
SW-620 = system: SW-620
HT-29 = system: HT-29
Malme-3M = system: Malme-3M
SN12C = system: SN12C
MCF7 = system: MCF7
SNB-19 = system: SNB-19
HL-60 = system: HL-60
HCC 2998 = system: HCC 2998
OVCAR-5 = system: OVCAR-5
SF-539 = system: SF-539
A498 = system: A498
OVCAR-4 = system: OVCAR-4
CAKI-1 = system: CAKI-1
RXF 393 = system: RXF 393
NCI-H226 = system: NCI-H226
K562 = system: K562
KM12 = system: KM12
MDA-MB-435 = system: MDA-MB-435
SK-MEL-28 = system: SK-MEL-28
NCI-H23 = system: NCI-H23
U-251 = system: U-251
CCRF-CEM = system: CCRF-CEM
UO-31 = system: UO-31
RPMI-8226 = system: RPMI-8226
TK-10 = system: TK-10

With `CC(C)(C)[Si](C)(C)OCC1OC(n2cc(I)c(N)nc2=O)C(O[Si](C)(C)C(C)(C)C)C1O[Si](C)(C)C(C)(C)C` (configuration not stated) the GI50 (HOP-62) was 14.5 µM (inactive), the GI50 (ACHN) was 10.2 µM (inactive) and the GI50 (HCT-15) was 18.6 µM. The GI50 (SR) was 5.37 µM (inactive), the GI50 (NCI-H460) was 7.19 µM (inactive) and the GI50 (SF-268) was 12.7 µM (inactive). For the same compound, the GI50 (SNB-75) was 14.3 µM (inactive), the GI50 (IGROV-1) was 5.73 µM (inactive) and the GI50 (Hs-578T) was 11.4 µM (inactive). The GI50 (MDA-N) was 12.2 µM (inactive), the GI50 (PC-3) was 3.4 µM (inactive) and the GI50 (SF-295) was 3.16 µM (inactive). The GI50 (LOX IMVI) was 5.43 µM (inactive), the GI50 (MDA-MB-231) was 13.3 µM (inactive) and the GI50 (M14) was 5.04 µM (inactive). For the same compound, the GI50 (NCI/ADR-RES) was 34.1 µM (inactive), the GI50 (DU-145) was 13.3 µM (inactive) and the GI50 (SK-MEL-5) was 10.4 µM (inactive). The GI50 (EKVX) was 18.6 µM (inactive), the GI50 (SK-MEL-2) was 5.02 µM (inactive) and the GI50 (A549) was 6.58 µM (inactive). For the same compound, the GI50 (NCI-H522) was 3.56 µM (inactive), the GI50 (786-0) was 1.99 µM (inactive) and the GI50 (T47D) was > 10 µM (inactive). The GI50 (OVCAR-3) was 10.5 µM (inactive), the GI50 (SK-OV-3) was 15.5 µM (inactive) and the GI50 (MOLT-4) was 2.5 µM (inactive). For the same compound, the GI50 (HOP-92) was 19.1 µM (inactive), the GI50 (COLO 205) was 16.1 µM (inactive) and the GI50 (UACC-62) was 10.3 µM (inactive). The GI50 (OVCAR-8) was 12.5 µM (inactive), the GI50 (UACC-257) was 11.5 µM (inactive) and the GI50 (HCT-116) was 9.42 µM (inactive). For the same compound, the GI50 (SW-620) was 4.58 µM (inactive), the GI50 (HT-29) was 5.26 µM (inactive) and the GI50 (Malme-3M) was 11.3 µM (inactive). The GI50 (SN12C) was 8.28 µM (inactive).

With `CN1C2CC(C#N)C1C=CC2=O` (configuration not stated) the GI50 (MCF7) was 33.3 µM (inactive) and 57.8 µM (inactive), the GI50 (SNB-19) was 87.1 µM (inactive) and the GI50 (SK-MEL-2) was 29 µM (inactive) and 33.7 µM (inactive). The GI50 (SK-OV-3) was 43.1 µM (inactive) and 24.8 µM (inactive) and the GI50 (HL-60) was 18.9 µM (inactive) and 34.1 µM (inactive).

For `O/N=C1\CC2(N3CCOCC3)CCC1(Cc1ccccc1)CC2`, the GI50 (HOP-62) was 23 µM (inactive), the GI50 (ACHN) was 22.3 µM (inactive) and the GI50 (HCT-15) was greater than 100 µM. The GI50 (SR) was > 100 µM (inactive), the GI50 (HCC 2998) was > 100 µM (inactive) and the GI50 (NCI-H460) was > 100 µM (inactive). The GI50 (SF-268) was 30.9 µM (inactive), the GI50 (SNB-75) was 13.5 µM (inactive) and the GI50 (IGROV-1) was 43.6 µM (inactive). For the same compound, the GI50 (MCF7) was > 100 µM (inactive), the GI50 (OVCAR-5) was > 100 µM (inactive) and the GI50 (SF-539) was 23.2 µM (inactive). The GI50 (MDA-N) was > 100 µM (inactive), the GI50 (PC-3) was > 100 µM (inactive) and the GI50 (A498) was 32 µM (inactive). For the same compound, the GI50 (OVCAR-4) was 32.5 µM (inactive), the GI50 (CAKI-1) was 64.3 µM (inactive) and the GI50 (SF-295) was 22.9 µM (inactive). The GI50 (RXF 393) was 21.1 µM (inactive), the GI50 (LOX IMVI) was 2.55 µM (inactive) and the GI50 (MDA-MB-231) was 26.2 µM (inactive). For the same compound, the GI50 (SNB-19) was 24.1 µM (inactive), the GI50 (M14) was > 100 µM (inactive) and the GI50 (NCI/ADR-RES) was 61.1 µM (inactive). The GI50 (DU-145) was > 100 µM (inactive), the GI50 (SK-MEL-5) was > 100 µM (inactive) and the GI50 (NCI-H226) was 35 µM (inactive). The GI50 (EKVX) was > 100 µM (inactive), the GI50 (SK-MEL-2) was 37.4 µM (inactive) and the GI50 (A549) was > 100 µM (inactive). For the same compound, the GI50 (NCI-H522) was 43.4 µM (inactive), the GI50 (K562) was > 100 µM (inactive) and the GI50 (786-0) was 19 µM (inactive). The GI50 (T47D) was 32 µM (inactive), the GI50 (KM12) was > 100 µM (inactive) and the GI50 (MDA-MB-435) was > 100 µM (inactive). The GI50 (OVCAR-3) was > 100 µM (inactive), the GI50 (SK-OV-3) was 30.5 µM (inactive) and the GI50 (MOLT-4) was > 100 µM (inactive). For the same compound, the GI50 (HOP-92) was 28.6 µM (inactive), the GI50 (COLO 205) was > 100 µM (inactive) and the GI50 (UACC-62) was > 10 µM (inactive). For the same compound, the GI50 (OVCAR-8) was 23.4 µM (inactive), the GI50 (SK-MEL-28) was > 100 µM (inactive) and the GI50 (NCI-H23) was 64.1 µM (inactive). The GI50 (UACC-257) was > 100 µM (inactive), the GI50 (HCT-116) was 35.6 µM (inactive) and the GI50 (U-251) was 19.4 µM (inactive). For the same compound, the GI50 (CCRF-CEM) was > 100 µM (inactive), the GI50 (SW-620) was > 100 µM (inactive) and the GI50 (HL-60) was > 100 µM (inactive). For the same compound, the GI50 (HT-29) was > 100 µM (inactive), the GI50 (Malme-3M) was 66.4 µM (inactive) and the GI50 (SN12C) was > 100 µM (inactive). The GI50 (UO-31) was > 100 µM (inactive).

In the case of `OCSc1nn(CO)c(=S)s1`, the GI50 (HOP-62) is reported as 21.8 µM (inactive), the GI50 (ACHN) is reported as 25.1 µM (inactive) and the GI50 (HCT-15) is reported as 18.3 µM. For the same compound, the GI50 (SR) was 0.0643 µM (active), the GI50 (HCC 2998) was 22.1 µM (inactive) and the GI50 (NCI-H460) was 23.8 µM (inactive). For the same compound, the GI50 (SF-268) was 21.6 µM (inactive), the GI50 (SNB-75) was 24.4 µM (inactive) and the GI50 (IGROV-1) was 17.7 µM (inactive). For the same compound, the GI50 (Hs-578T) was 14.3 µM (inactive), the GI50 (MCF7) was 15.4 µM (inactive) and the GI50 (OVCAR-5) was 48.1 µM (inactive). For the same compound, the GI50 (SF-539) was 23.4 µM (inactive), the GI50 (PC-3) was 24.4 µM (inactive) and the GI50 (OVCAR-4) was 18.5 µM (inactive). The GI50 (CAKI-1) was 31.1 µM (inactive), the GI50 (SF-295) was 26.9 µM (inactive) and the GI50 (RXF 393) was 16.9 µM (inactive). The GI50 (LOX IMVI) was 18 µM (inactive), the GI50 (MDA-MB-231) was 28.1 µM (inactive) and the GI50 (SNB-19) was 25.8 µM (inactive). The GI50 (M14) was 20.1 µM (inactive), the GI50 (NCI/ADR-RES) was 21.1 µM (inactive) and the GI50 (DU-145) was 23.8 µM (inactive). The GI50 (SK-MEL-5) was 31.8 µM (inactive), the GI50 (NCI-H226) was 31.6 µM (inactive) and the GI50 (EKVX) was 33.7 µM (inactive). For the same compound, the GI50 (SK-MEL-2) was 23 µM (inactive), the GI50 (A549) was 33.2 µM (inactive) and the GI50 (RPMI-8226) was 25.4 µM (inactive). For the same compound, the GI50 (NCI-H522) was 17 µM (inactive), the GI50 (K562) was 20.7 µM (inactive) and the GI50 (786-0) was 23.1 µM (inactive). For the same compound, the GI50 (T47D) was 23.9 µM (inactive), the GI50 (KM12) was 18.7 µM (inactive) and the GI50 (MDA-MB-435) was 18.4 µM (inactive). The GI50 (OVCAR-3) was 24 µM (inactive), the GI50 (SK-OV-3) was 34.4 µM (inactive) and the GI50 (MOLT-4) was 23.4 µM (inactive). The GI50 (HOP-92) was 11.4 µM (inactive), the GI50 (COLO 205) was 28.1 µM (inactive) and the GI50 (UACC-62) was 17.5 µM (inactive). The GI50 (OVCAR-8) was 10.5 µM (inactive), the GI50 (SK-MEL-28) was 21.7 µM (inactive) and the GI50 (NCI-H23) was 20 µM (inactive). For the same compound, the GI50 (UACC-257) was 23 µM (inactive), the GI50 (TK-10) was 73.5 µM (inactive) and the GI50 (HCT-116) was 24.2 µM (inactive). The GI50 (U-251) was 23.8 µM (inactive), the GI50 (CCRF-CEM) was 6.79 µM (inactive) and the GI50 (SW-620) was 28.1 µM (inactive). The GI50 (HL-60) was 18 µM (inactive), the GI50 (HT-29) was 28.1 µM (inactive) and the GI50 (Malme-3M) was 22.5 µM (inactive). The GI50 (SN12C) was 21.2 µM (inactive).
